As usually defined, the pIC50 is −log10 of the IC50, conventionally taken in molar units.

Molecules are shown by their SMILES. pIC50: −log10 of the molar value.

The target in the test is T1, EBP (Homo sapiens, UniProt Q15125).
T1 construct: HEK293T cells were utilized as the source of EBP enzyme; endogenous in cells; host or cells: HEK293T
T1 sequence (Q15125 whole entry): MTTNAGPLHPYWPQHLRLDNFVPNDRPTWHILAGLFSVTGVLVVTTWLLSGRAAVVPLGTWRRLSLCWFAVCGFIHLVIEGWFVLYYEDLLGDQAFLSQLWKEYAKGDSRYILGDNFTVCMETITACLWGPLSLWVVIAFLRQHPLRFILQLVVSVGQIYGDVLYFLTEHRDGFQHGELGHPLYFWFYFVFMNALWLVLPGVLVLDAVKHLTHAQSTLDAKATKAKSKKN
As to the kind of experiment: EBP Functional Assay (EBP immunoaffinity LC-MS assay). It is filed as biochemical. Particulars: HEK293T cells as source of EBP enzyme; substrate zymosterol-d5, 37° C. for 4 h; percent conversion to dehydrolathosterol-d5 by LC-APCI MRM MS. As for the experimental part: The EBP immunoaffinity (IA) LC-MS assay measures the potency of small molecule inhibitors of EBP by quantifying their concentration-dependent changes in the enzyme's substrate and product using liquid chromatography atmospheric pressure chemical ionization multiple reaction monitoring mass spectrometry (LC-APCI MRM MS). HEK293T cells were utilized as the source of EBP enzyme. The enzyme was incubated with the small molecule inhibitors at variable concentrations for 30 min. Deuterated form of EBP substrate, zymosterol-d5 (Avanti Polar Lipids, Cat #700068P-1 mg), was then added and the plate was incubated at 37° C. for 4 h. Finally, the sterol isomers were extracted and injected to LC-APCI MRM MS. MRM transition used for the quantification for both zymosterol and […] (substrate and product of EBP enzymatic reaction, respectively) is 372.3-203.2, CE 30 and DP 80 in positive ion mode. Percent conversion of the zymosterol-d5 to dehydrolathosterol-d5 was used to derive IC50 curves. Tasin-1 (1′-[(4-Methoxyphenyl)sulfonyl]-4-methyl-1,4′-bipiperidine, CAS 792927-06-1) was used as the reference small molecule inhibitor.
Percent conversion versus the compound concentration data were fit to the following 4-parameter logistic model to generate IC50 curves: […]
The compound `Cc1cc(C(F)(F)F)ncc1S(=O)(=O)N1CCC2(CC1)CC(N1CCOCC1)CO2` (centres unmarked) [Example 4] gave a pIC50 of 5.82 to 6.60.

`O=S(=O)(c1ccc(OC(F)F)cc1)N1CCC2(CCC(N3CCOCC3)C2)CC1` (centres unmarked) [Example 23, 4-(8-((4-(Difluoromethoxy)phenyl)sulfonyl)-8-azaspiro[4.5]decan-2-yl)morpholine] had a pIC50 of 6.60 to 7.00.

For the compound `Cc1cc(S(=O)(=O)N2CCC3(CC2)CC(N2CC4(COC4)C2)C3)n(C)n1` [Example 92, 6-(7-((1,3-dimethyl-1H-pyrazol-5-yl)sulfonyl)-7-azaspiro[3.5]nonan-2-yl)-2-oxa-6-azaspiro[3.3]heptane], the pIC50 is 6.60 to 7.00.

The compound `COc1cc(S(=O)(=O)N2CCC3(CCC(N4CC5(COC5)C4)C3)CC2)c(F)cn1` (centres unmarked) [Example 113] showed a pIC50 greater than 7.00.

Regarding `N#Cc1cccc(S(=O)(=O)N2CCC3(CCC(N4CC5(COC5)C4)C3)CC2)c1F` (centres unmarked) [Example 104], the pIC50 was greater than 7.00.

`N#Cc1cc(F)cc(S(=O)(=O)N2CCC3(CC2)CC(NCC2CCOCC2)CO3)c1` (centres unmarked) [Example 98, 3-fluoro-5-((3-(((tetrahydro-2H-pyran-4-yl)methyl)amino)-1-oxa-8-azaspiro[4.5]decan-8-yl)sulfonyl)benzonitrile]: the pIC50 is 5.82 to 6.60.

Consider `CCn1ncc(S(=O)(=O)N2CCC3(CCC(N4CC5(COC5)C4)C3)CC2)n1` (centres unmarked) [Example 111], for which the pIC50 is 5.82 to 6.60.

In turn, `COc1cc(S(=O)(=O)N2CCC3(CCC(N4CC5(COC5)C4)C3)CC2)n(C)n1` (centres unmarked) [Example 124, 6-(8-((3-methoxy-1-methyl-1H-pyrazol-5-yl)sulfonyl)-8-azaspiro[4.5]decan-2-yl)-2-oxa-6-azaspiro[3.3]heptane] gave a pIC50 greater than 7.00.

As to `Cc1cc(S(=O)(=O)N2CCC3(CCC(N4C[C@@H]5C[C@H]4CO5)C3)CC2)n(C)n1` (stereo partly drawn) [Example 87, (1S,4S)-5-(8-((1,3-dimethyl-1H-pyrazol-5-yl)sulfonyl)-8-azaspiro[4.5]decan-2-yl)-2-oxa-5-azabicyclo[2.2.1]heptane], the pIC50 is 5.82 to 6.60.

Compound `Cn1nc(C2CC2)cc1S(=O)(=O)N1CCC2(CC1)CC(NC1CCOCC1)C2` [Example 120, 7-((3-cyclopropyl-1-methyl-1H-pyrazol-5-yl)sulfonyl)-N-(tetrahydro-2H-pyran-4-yl)-7-azaspiro[3.5]nonan-2-amine] had a pIC50 greater than 7.00.

In the case of `COc1ccc(S(=O)(=O)N2CCC3(CCC(N4CC5(COC5)C4)C3)CC2)cc1F` (centres unmarked) [Example 10], the pIC50 is 6.60 to 7.00.

Compound `Cc1cc(S(=O)(=O)N2CCC3(CCC(N4CCC(C)(O)CC4)C3)CC2)n(C)n1` (centres unmarked) [Example 84, 1-(8-((1,3-dimethyl-1H-pyrazol-5-yl)sulfonyl)-8-azaspiro[4.5]decan-2-yl)-4-methylpiperidin-4-ol] gave a negative-log IC50 (pIC50) of 6.60 to 7.00.

Consider `O=S(=O)(c1cnc2ccccc2c1)N1CCC2(CCC(N3CC4(COC4)C3)C2)CC1` (centres unmarked) [Example 103], for which the pIC50 is greater than 7.00.

Compound `O=S(=O)(c1ccc(OC(F)F)cc1)N1CCC2(CC1)CC(N1CCC3(CCOC3)C1)CO2` (centres unmarked) [Example 70, 8-((4-(Difluoromethoxy)phenyl)sulfonyl)-3-(2-oxa-7-azaspiro[4.4]nonan-7-yl)-1-oxa-8-azaspiro[4.5]decane] showed a pIC50 of 5.82 to 6.60.

As for `O=S(=O)(c1cc(F)ccc1F)N1CCC2(CC1)CC(N1CCOCC1)CO2` (centres unmarked) [Example 19, 8-((2,5-Difluorophenyl)sulfonyl)-3-morpholino-1-oxa-8-azaspiro[4.5]decane], the pIC50 is 5.82 to 6.60.

`O=S(=O)(c1ccc(OC(F)F)cc1)N1CCC2(CC[C@@H](N3C[C@@H]4C[C@H]3CO4)C2)CC1` (single isomer, unassigned) [Example 90a] showed a pIC50 of 6.60 to 7.00.

With `Cc1nc(C(F)(F)F)ncc1S(=O)(=O)N1CCC2(CC1)CC(N(C)C1CC3(COC3)C1)CO2` (centres unmarked) [Example 140, N-methyl-8-((4-methyl-2-(trifluoromethyl)pyrimidin-5-yl)sulfonyl)-N-(2-oxaspiro[3.3]heptan-6-yl)-1-oxa-8-azaspiro[4.5]decan-3-amine], the pIC50 is greater than 7.00.

Turning to `Cn1nc(C(F)F)cc1S(=O)(=O)N1CCC2(CC1)CC(N1CC3(COC3)C1)C2` [Example 122, 6-(7-((3-(difluoromethyl)-1-methyl-1H-pyrazol-5-yl)sulfonyl)-7-azaspiro[3.5]nonan-2-yl)-2-oxa-6-azaspiro[3.3]heptane], the pIC50 is greater than 7.00.

With `O=S(=O)(c1ccc(OC2CC2)cc1)N1CCC2(CCC(N3CC4(COC4)C3)C2)CC1` (centres unmarked) [Example 134, 6-(8-((4-cyclopropoxyphenyl)sulfonyl)-8-azaspiro[4.5]decan-2-yl)-2-oxa-6-azaspiro[3.3]heptane], the pIC50 is 5.82 to 6.60.

`COc1cc(S(=O)(=O)N2CCC3(CCC(N4CC5(COC5)C4)C3)CC2)ccn1` (centres unmarked) [Example 112] showed a pIC50 greater than 7.00.

As to `O=S(=O)(c1cc(F)cc(F)c1)N1CCC2(CC1)C[C@@H](N1CC3(COC3)C1)CO2` (single isomer, unassigned) [Example 119b], the pIC50 is 6.60 to 7.00.

`Cc1cc(S(=O)(=O)N2CCC3(CC[C@@H](N4CC5(COC5)C4)C3)CC2)n(C)n1` (single isomer, unassigned) [Example 68a] had a pIC50 of 6.60 to 7.00.

The compound `CCOc1ccc(S(=O)(=O)N2CCC3(CCC(N4CC5(COC5)C4)C3)CC2)cc1` (centres unmarked) [Example 108] showed a pIC50 of 5.82 to 6.60.

Compound `O=S(=O)(c1ccc(OC(F)F)cc1)N1CCC2(CC[C@H](N3C[C@@H]4C[C@H]3CO4)C2)CC1` (single isomer, unassigned) [Example 90b] showed a pIC50 greater than 7.00.

As to `COc1cc(S(=O)(=O)N2CCC3(CCC(N4CCOCC4)C3)CC2)n(C)n1` (centres unmarked) [Example 26, 4-(8-((3-Methoxy-1-methyl-1H-pyrazol-5-yl)sulfonyl)-8-azaspiro[4.5]decan-2-yl)morpholine], the pIC50 is greater than 7.00.

With `Cc1cc(C)c(S(=O)(=O)N2CCC3(CC2)CC(N2CCC4(CCOC4)C2)CO3)cn1` (centres unmarked) [Example 28, 8-((4,6-Dimethylpyridin-3-yl)sulfonyl)-3-(2-oxa-7-azaspiro[4.4]nonan-7-yl)-1-oxa-8-azaspiro[4.5]decane], the pIC50 was 5.82 to 6.60.

In the case of `COc1ccc(S(=O)(=O)N2CCC3(CC2)CC(N(C)C2CC4(COC4)C2)CO3)c(F)c1` (centres unmarked) [Example 136, 8-((2-fluoro-4-methoxyphenyl)sulfonyl)-N-methyl-N-(2-oxaspiro[3.3]heptan-6-yl)-1-oxa-8-azaspiro[4.5]decan-3-amine], the negative logarithm of the IC50 (pIC50) was 6.60 to 7.00.

Consider `O=S(=O)(c1cc(C(F)F)nn1C1CC1)N1CCC2(CC1)CC(N1CC3(COC3)C1)C2` [Example 123, 6-(7-((1-cyclopropyl-3-(difluoromethyl)-1H-pyrazol-5-yl)sulfonyl)-7-azaspiro[3.5]nonan-2-yl)-2-oxa-6-azaspiro[3.3]heptane], for which the pIC50 was greater than 7.00.

The compound `O=S(=O)(c1ccc(F)cc1)N1CCC2(CCC(N3CC4(COC4)C3)C2)CC1` (centres unmarked) [Example 12] had a pIC50 greater than 7.00.

For `Cc1ccc(S(=O)(=O)N2CCC3(CC2)C[C@H](N2CC(O)C2)CO3)c(Cl)c1` (single isomer, unassigned) [Example 53b], the pIC50 is 6.60 to 7.00.

In turn, `N#Cc1ccc(Cl)c(S(=O)(=O)N2CCC3(CC2)CC(N2CC4(COC4)C2)CO3)c1` (centres unmarked) [Example 64, 3-((3-(2-Oxa-6-azaspiro[3.3]heptan-6-yl)-1-oxa-8-azaspiro[4.5]decan-8-yl)sulfonyl)-4-chlorobenzonitrile] gave a pIC50 of 5.82 to 6.60.

Compound `O=S(=O)(c1cnc2cccc(F)c2c1)N1CCC2(CCC(N3CC4(COC4)C3)C2)CC1` (centres unmarked) [Example 132, 6-(8-((5-fluoroquinolin-3-yl)sulfonyl)-8-azaspiro[4.5]decan-2-yl)-2-oxa-6-azaspiro[3.3]heptane] had a pIC50 greater than 7.00.

In the case of `N#Cc1cc(F)cc(S(=O)(=O)N2CCC3(CC[C@H](N4CC5(COC5)C4)C3)CC2)c1` (single isomer, unassigned) [Example 85b], the pIC50 is greater than 7.00.

`Cc1cc(S(=O)(=O)N2CCC3(CCC(N4CC5(COC5)C4)C3)CC2)n(C)n1` (centres unmarked) [Example 142, 6-(8-((1,3-dimethyl-1H-pyrazol-5-yl)sulfonyl)-8-azaspiro[4.5]decan-2-yl)-2-oxa-6-azaspiro[3.3]heptane] had a negative logarithm of the IC50 (pIC50) of 6.60 to 7.00.

`Cc1cc(C(F)(F)F)ccc1S(=O)(=O)N1CCC2(CC1)CC(N1CCOCC1)CO2` (centres unmarked) [Example 17, 8-((2-Methyl-4-(trifluoromethyl)phenyl)sulfonyl)-3-morpholino-1-oxa-8-azaspiro[4.5]decane] showed a pIC50 of 5.82 to 6.60.

`O=S(=O)(c1cccc2ccnn12)N1CCC2(CCC(N3CC4(COC4)C3)C2)CC1` (centres unmarked) [Example 131, 6-(8-(pyrazolo[1,5-a]pyridin-7-ylsulfonyl)-8-azaspiro[4.5]decan-2-yl)-2-oxa-6-azaspiro[3.3]heptane]: the pIC50 is 6.60 to 7.00.

Consider `COc1nccc(S(=O)(=O)N2CCC3(CCC(N4CCOCC4)C3)CC2)c1F` (centres unmarked) [Example 33, 4-(8-((3-Fluoro-2-methoxypyridin-4-yl)sulfonyl)-8-azaspiro[4.5]decan-2-yl)morpholine], for which the pIC50 was greater than 7.00.

The compound `O=S(=O)(c1ccc(OC2CC2)cn1)N1CCC2(CCC(N3CCOCC3)C2)CC1` (centres unmarked) [Example 32, 4-(8-((5-Cyclopropoxypyridin-2-yl)sulfonyl)-8-azaspiro[4.5]decan-2-yl)morpholine] had a negative logarithm of the IC50 (pIC50) of 5.82 to 6.60.

These data come from patent US20250152574A1 (BIOGEN MA INC., priority 2022, published 2025).
